Each compound was assayed against T1, human full-length recombinant PKC βII (Homo sapiens, UniProt P05771) (assay: Determination of PKC βII inhibition (Caliper mobility shift kinase assay)). Conditions: final compound concentration 1.14 μM (±0.15 μM); 60 min incubation at 32° C.
T1 construct: Active human full-length recombinant PKC βII; purchased Invitrogen GmbH, Darmstadt, Germany
T1 sequence (P05771 1-673 isoform P05771-2): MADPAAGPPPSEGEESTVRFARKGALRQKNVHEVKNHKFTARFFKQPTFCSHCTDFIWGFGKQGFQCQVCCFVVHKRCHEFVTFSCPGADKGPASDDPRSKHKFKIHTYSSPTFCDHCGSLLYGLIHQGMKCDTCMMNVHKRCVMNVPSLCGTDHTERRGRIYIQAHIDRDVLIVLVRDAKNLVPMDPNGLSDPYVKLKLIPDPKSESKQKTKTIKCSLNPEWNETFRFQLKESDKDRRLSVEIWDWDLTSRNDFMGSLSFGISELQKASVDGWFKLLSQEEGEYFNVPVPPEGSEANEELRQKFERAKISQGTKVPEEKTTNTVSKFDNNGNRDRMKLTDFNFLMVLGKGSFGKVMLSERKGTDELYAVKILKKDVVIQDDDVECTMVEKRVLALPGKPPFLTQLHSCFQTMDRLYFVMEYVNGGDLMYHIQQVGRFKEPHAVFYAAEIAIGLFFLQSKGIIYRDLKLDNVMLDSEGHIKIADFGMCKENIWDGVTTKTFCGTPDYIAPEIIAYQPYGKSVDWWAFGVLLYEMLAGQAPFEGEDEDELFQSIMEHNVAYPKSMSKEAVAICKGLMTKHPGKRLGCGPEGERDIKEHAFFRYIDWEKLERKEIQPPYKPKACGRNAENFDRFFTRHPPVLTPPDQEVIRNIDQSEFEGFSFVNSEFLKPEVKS
Assay type: biochemical
Description: Determination of PKC βII Inhibition
PKC βII inhibition was determined according to the following protocol:
Active human full-length recombinant PKC βII and the peptide substrate, Fluorescein-RFARKGSLRQKNV, were purchased from Invitrogen GmbH, Darmstadt, Germany. Adenosine-5′-triphosphate (ATP), bovine serum albumine (BSA), dimethylsulphoxide (DMSO), 4-(2-hydroxyethyl)piperazine-1-ethanesulfonic acid (Hepes), Triton X-100, 1,2-Dioleoyl-sn-glycerol (DAG), L-α-Phosphatidyl-L-serine (PS), calcium chloride (CaCl2), and Pluronic F-68 were purchased from Sigma-Aldrich, Munich, Germany. Magnesium chloride, 1 M sodium hydroxide solution, 1M hydrochloric acid solution and EDTA were obtained from Merck Biosciences, Darmstadt, Germany.
Test compounds were diluted to three times the test concentration in buffer 1 (30 mM Hepes-NaOH, pH 7.4, 0.01% Pluronic F-68 and 3% (v/v) DMSO). The […] enzyme was diluted to a concentration of 30 ng/ml in buffer 2 (30 mM Hepes-NaOH, pH 7.4, 15 mM MgCl2, 150 μM CaCl2, 150 μg/ml PS, 60 μg/ml DAG, and 0.045% (w/v) Triton X-100). The peptide substrate and ATP were diluted to concentrations of 3 μM and 120 μM, respectively, in buffer 2. Two μl of the compound solution were mixed with 2 μl of the diluted enzyme in a 384-well small volume microtiter plate (Greiner, Bio-One, Frickenhausen, Germany), and the kinase reaction was initiated by addition of 2 μl of the solution containing peptide substrate and ATP. After 60 min incubation at 32° C., the reaction was stopped by addition of 20 μl of a solution containing 130 mM Hepes-NaOH, pH 7.4, 0.0195% (v/v) Brij-35, 6.5 mM EDTA, 0.13% chip coating reagent 3 (Caliper Lifescience Inc, Hopkinton, Mass.) and 6.5% (v/v) DMSO. Phosphorylation of the substrate peptide was then detected on a Caliper 3000 instrument essentially as described by Pommereau et al (J. Biomol. Screening 2004, 9(5), 409-416). Separation conditions were as follows: Pressure −0.8 psi, upstream voltage −3000 V, downstream voltage −800 V. Positive controls (buffer 1 instead of compound) and negative controls (buffer 1 instead of compound and buffer 2 instead of kinase solution) were run in parallel on each plate. Fractional turnover (R) was determined as the height of the peak of the phosphorylated peptide product divided by the sum of the unphosphorylated substrate and phosphorylated product peak heights. Percent-inhibition values for the test compounds were determined using the formula % Inhibition=100*(1−(Rcompound−Rnegative control)/(Rpositive control−Rnegative control).
In the following table % inhibition values observed with example compounds at a final concentration of 1.14 μM (±0.15 μM) are listed: […]
An inhibition at 1.14 µM of 102% was found for Cc1n[nH]c2nc(-c3ccc(O)cc3F)cc(CN3CCCNC(C)C3)c12 (centres unmarked) [Example 25, 3-Fluoro-4-[3-methyl-4-(3-methyl-[1,4]diazepan-1-ylmethyl)-1H-pyrazolo[3,4-b]pyridin-6-yl]-phenol] in this work. An inhibition at 1.14 µM of 92% was found for Cc1n[nH]c2nc(-c3ccc(O)cc3F)cc(CN3CCNCC3(C)C)c12 [Example 26, 4-[4-(2,2-Dimethyl-piperazin-1-ylmethyl)-3-methyl-1H-pyrazolo[3,4-b]pyridin-6-yl]-3-fluoro-phenol] in this work. An inhibition at 1.14 µM of 83% was found for Cc1n[nH]c2nc(-c3ccc(O)cc3F)cc(CN3C[C@@H](C)NC[C@@H]3C)c12 [Example 27, 4-[4-((2S,5R)-2,5-Dimethyl-piperazin-1-ylmethyl)-3-methyl-1H-pyrazolo[3,4-b]pyridin-6-yl]-3-fluoro-phenol] in this work. An inhibition at 1.14 µM of 97% was found for Cc1n[nH]c2nc(-c3ccc(O)cc3F)cc(CN3CC(C)(C)NCC3(C)C)c12 [Example 28, 3-Fluoro-4-[3-methyl-4-(2,2,5,5-tetramethyl-piperazin-1-ylmethyl)-1H-pyrazolo[3,4-b]pyridin-6-yl]-phenol] in this work. An inhibition at 1.14 µM of 97% was found for CC[C@@H]1CN(Cc2cc(-c3ccc(O)cc3F)nc3[nH]nc(C)c23)[C@@H](C)CN1 [Example 30, 4-[4-((2S,5R)-5-Ethyl-2-methyl-piperazin-1-ylmethyl)-3-methyl-1H-pyrazolo[3,4-b]pyridin-6-yl]-3-fluoro-phenol] in this work. An inhibition at 1.14 µM of 101% was found for CCC1(C)CNC(C)(C)CN1Cc1cc(-c2ccc(O)cc2F)nc2[nH]nc(C)c12 (centres unmarked) [Example 31, 4-[4-(2-Ethyl-2,5,5-trimethyl-piperazin-1-ylmethyl)-3-methyl-1H-pyrazolo[3,4-b]pyridin-6-yl]-3-fluoro-phenol] in this work. An inhibition at 1.14 µM of 101% was found for CCC1(CC)CNC(C)(C)CN1Cc1cc(-c2ccc(O)cc2F)nc2[nH]nc(C)c12 [Example 32, 4-[4-(2,2-Diethyl-5,5-dimethyl-piperazin-1-ylmethyl)-3-methyl-1H-pyrazolo[3,4-b]pyridin-6-yl]-3-fluoro-phenol] in this work. An inhibition at 1.14 µM of 93% was found for Cc1n[nH]c2nc(-c3ccc(O)cc3)cc(CN3CC4(CCCC4)NCC3C)c12 (centres unmarked) [Example 33, 4-[3-Methyl-4-(8-methyl-6,9-diaza-spiro[4.5]dec-9-ylmethyl)-1H-pyrazolo[3,4-b]pyridin-6-yl]-phenol] in this work. An inhibition at 1.14 µM of 73% was found for Cc1n[nH]c2nc(-c3ccc(O)cc3F)cc(CN3CC(C)(C)NCC3(C)C3CC3)c12 (centres unmarked) [Example 34, 4-[4-(2-Cyclopropyl-2,5,5-trimethyl-piperazin-1-ylmethyl)-3-methyl-1H-pyrazolo[3,4-b]pyridin-6-yl]-3-fluoro-phenol] in this work. An inhibition at 1.14 µM of 78% was found for Cc1n[nH]c2nc(-c3ccc(O)cc3F)cc(CN3CC4(CCCC4)NCC3C)c12 (centres unmarked) [Example 35, 3-Fluoro-4-[3-methyl-4-(8-methyl-6,9-diaza-spiro[4.5]dec-9-ylmethyl)-1H-pyrazolo[3,4-b]pyridin-6-yl]-phenol] in this work. An inhibition at 1.14 µM of 94% was found for Cc1n[nH]c2nc(-c3ccc(O)cc3F)cc(CN3CC4(CCCC4)NCC3(C)C)c12 [Example 36, 4-[4-(8,8-Dimethyl-6,9-diaza-spiro[4.5]dec-9-ylmethyl)-3-methyl-1H-pyrazolo[3,4-b]pyridin-6-yl]-3-fluoro-phenol] in this work. An inhibition at 1.14 µM of 94% was found for Cc1n[nH]c2nc(-c3ccc(O)cc3F)cc(CN3CC(C)(C)NCC3C(C)C)c12 (centres unmarked) [Example 37, 3-Fluoro-4-[4-(2-isopropyl-5,5-dimethyl-piperazin-1-ylmethyl)-3-methyl-1H pyrazolo[3,4-b]pyridin-6-yl]-phenol] in this work. An inhibition at 1.14 µM of 99% was found for Cc1n[nH]c2nc(-c3ccc(O)cc3F)cc(CN3CC(C)(C)NCC3C)c12 (centres unmarked) [Example 38, 3-Fluoro-4-[3-methyl-4-(2,5,5-trimethyl-piperazin-1-ylmethyl)-1H-pyrazolo[3,4-b]pyridin-6-yl]-phenol] in this work. An inhibition at 1.14 µM of 100% was found for CCC1CNC(C)(C)CN1Cc1cc(-c2ccc(O)cc2F)nc2[nH]nc(C)c12 (centres unmarked) [Example 39, 4-[4-(2-Ethyl-5,5-dimethyl-piperazin-1-ylmethyl)-3-methyl-1H-pyrazolo[3,4-b]pyridin-6-yl]-3-fluoro-phenol] in this work. An inhibition at 1.14 µM of 97% was found for Cc1n[nH]c2nc(-c3ccc(O)cc3)cc(CN3CCNCC34CC4)c12 [Example 40, 4-[4-(4,7-Diaza-spiro[2.5]oct-4-ylmethyl)-3-methyl-1H-pyrazolo[3,4-b]pyridin-6-yl]-phenol] in this work. An inhibition at 1.14 µM of 93% was found for Cc1n[nH]c2nc(-c3ccc(O)cc3)cc(CN3CCNCC3c3ccccc3)c12 (centres unmarked) [Example 41, 4-[3-Methyl-4-(2-phenyl-piperazin-1-ylmethyl)-1H-pyrazolo[3,4-b]pyridin-6-yl]-phenol] in this work. An inhibition at 1.14 µM of 94% was found for Cc1n[nH]c2nc(-c3ccc(O)cc3)cc(CN3CCNCC3c3ccc(F)cc3)c12 (centres unmarked) [Example 42, 4-{4-[2-(4-Fluoro-phenyl)-piperazin-1-ylmethyl]-3-methyl-1H-pyrazolo[3,4-b]pyridin-6-yl}-phenol] in this work. An inhibition at 1.14 µM of 38% was found for Cc1n[nH]c2nc(-c3ccc(O)cc3)cc(CN3CCNCC3c3ccc(C(F)(F)F)cc3)c12 (centres unmarked) [Example 44, 4-{3-Methyl-4-[2-(4-trifluoromethyl-phenyl)-piperazin-1-ylmethyl]-1H-pyrazolo[3,4-b]pyridin-6-yl}-phenol] in this work. An inhibition at 1.14 µM of 54% was found for Cc1n[nH]c2nc(-c3ccc(O)cc3)cc(CN3CCNCC3c3ccc(C(C)C)cc3)c12 (centres unmarked) [Example 45, 4-{4-[2-(4-Isopropyl-phenyl)-piperazin-1-ylmethyl]-3-methyl-1H-pyrazolo[3,4-b]pyridin-6-yl}-phenol] in this work. An inhibition at 1.14 µM of 90% was found for CCC1(NCc2cc(-c3ccc(O)cc3)nc3[nH]nc(C)c23)CCCNC1 (centres unmarked) [Example 46, 4-{4-[(3-Ethyl-piperidin-3-ylamino)-methyl]-3-methyl-1H-pyrazolo[3,4-b]pyridin-6-yl} phenol] in this work. An inhibition at 1.14 µM of 101% was found for Cc1n[nH]c2nc(-c3ccc(O)cc3)cc(CN3CCNCC34CCCC4)c12 [Example 47, 4-[4-(6,9-Diaza-spiro[4.5]dec-6-ylmethyl)-3-methyl-1H-pyrazolo[3,4-b]pyridin-6-yl]-phenol] in this work. An inhibition at 1.14 µM of 99% was found for Cc1n[nH]c2nc(-c3ccc(O)cc3)cc(CN3CC(C)NCC3(C)C)c12 (centres unmarked) [Example 48, 4-[3-Methyl-4-(2,2,5-trimethyl-piperazin-1-ylmethyl)-1H-pyrazolo-[3,4-b]pyridin-6-yl]-phenol] in this work. An inhibition at 1.14 µM of 95% was found for Cc1n[nH]c2nc(-c3ccc(O)cc3)cc(CN3CC(C)(C)NCC3(C)C)c12 [Example 49, 4-[3-Methyl-4-(2,2,5,5-tetramethyl-piperazin-1-ylmethyl)-1H-pyrazolo[3,4-b]pyridin-6-yl]-phenol] in this work. An inhibition at 1.14 µM of 96% was found for CCC1(C)CNC(C)(C)CN1Cc1cc(-c2ccc(O)cc2)nc2[nH]nc(C)c12 (centres unmarked) [Example 50, 4-[4-(2-Ethyl-2,5,5-trimethyl-piperazin-1-ylmethyl)-3-methyl-1H-pyrazolo[3,4-b]pyridin-6-yl]-phenol] in this work. An inhibition at 1.14 µM of 98% was found for CCC1(CC)CNC(C)(C)CN1Cc1cc(-c2ccc(O)cc2)nc2[nH]nc(C)c12 [Example 51, 4-[4-(2,2-Diethyl-5,5-dimethyl-piperazin-1-ylmethyl)-3-methyl-1H-pyrazolo[3,4-b]pyridin-6-yl]-phenol] in this work. An inhibition at 1.14 µM of 91% was found for Cc1n[nH]c2nc(-c3ccc(O)cc3)cc(CN3CC(C)(C)NCC3C)c12 (centres unmarked) [Example 52, 4-[3-Methyl-4-(2,5,5-trimethyl-piperazin-1-ylmethyl)-1H-pyrazolo[3,4-b]pyridin-6-yl]-phenol] in this work. An inhibition at 1.14 µM of 99% was found for CCC1CNC(C)(C)CN1Cc1cc(-c2ccc(O)cc2)nc2[nH]nc(C)c12 (centres unmarked) [Example 53, 4-[4-(2-Ethyl-5,5-dimethyl-piperazin-1-ylmethyl)-3-methyl-1H-pyrazolo[3,4-b]pyridin-6-yl]-phenol] in this work. An inhibition at 1.14 µM of 98% was found for Cc1n[nH]c2nc(-c3ccc(O)cc3)cc(CN3C[C@@H](C)NC[C@@H]3C)c12 [Example 54, 4-[4-((2S,5R)-2,5-Dimethyl-piperazin-1-ylmethyl)-3-methyl-1H-pyrazolo[3,4-b]pyridin-6-yl]-phenol] in this work. An inhibition at 1.14 µM of 86% was found for Cc1n[nH]c2nc(-c3ccc(O)cc3F)cc(CN3CCNC(C)(C)C3)c12 [Example 55, 4-[4-(3,3-Dimethyl-piperazin-1-ylmethyl)-3-methyl-1H-pyrazolo[3,4-b]pyridin-6-yl]-3-fluoro-phenol] in this work.
